Read-outs that look alike come from different tables or passages of the source.
Key:
[1] = Emission measurement in CH3CN; format: physicochemical; settings: room temperature, excitation at 355 nm
Method: The absorption of the samples was measured with a SpectraMax M2 Spectrometer (Molecular Devices). The emission was measured by irradiation of the sample in fluorescence quartz cuvettes (width 1 cm) using a NT342B Nd-YAG pumped optical parametric oscillator (Ekspla) at 355 nm. Luminescence was focused and collected at right angle to the excitation pathway and directed to a Princeton Instruments Acton SP-2300i monochromator. As a detector, a XPI-Max 4 CCD camera (Princeton Instruments) has been used.

[2] = Luminescence quantum yield measurements; format: physicochemical; design: key: fraction, relative to [Ru(bipy)3]Cl2 reference in CH3CN (Φem=5.9%); settings: CH3CN, room temperature, excitation at 355 nm
Method: For the determination of the luminescence quantum yield, the samples were prepared in an CH3CN solution with an absorbance of 0.1 at 355 nm. This solution was irradiated in fluorescence quartz cuvettes (width 1 cm) using a NT342B Nd-YAG pumped optical parametric oscillator (Ekspla) at 355 nm. The emission signal was focused and collected at right angle to the excitation pathway and directed to a Princeton Instruments Acton SP-2300i monochromator. As a detector a XPI-Max 4 CCD camera (Princeton Instruments) has been used. The luminescence quantum yields were determined by comparison with the reference [Ru(bipy)3]Cl2 in CH3CN (Φem=5.9%) (Nakamaru, K., 1982) applying the following formula:
Φem, sample=Φem, reference*(Freference/Fsample)*(Isample/Ireference)*(nsample/nreference)^2
Φem=luminescence quantum yield, F=fraction of light absorbed, I=integrated emission intensities, n=refractive index, A=absorbance of the sample at irradiation wavelength.

[3] = Luminescence lifetime measurements; format: physicochemical; settings: excitation at 355 nm
Method: For the determination of the lifetimes, the samples were prepared in an air saturated and in a degassed CH3CN solution with an absorbance of 0.2 at 355 nm. This solution was irradiated in fluorescence quartz cuvettes (width 1 cm) using a NT342B Nd-YAG pumped optical parametric oscillator (Ekspla) at 355 nm. The emission signal was focused and collected at right angle to the excitation pathway and directed to a Princeton Instruments Acton SP-2300i monochromator. As a detector a R928 photomultiplier tube (Hamamatsu) has been used.

[4] = Singlet oxygen measurement, direct evaluation (1O2 luminescence at 1270 nm); format: physicochemical
Method: The samples were prepared in an air saturated CH3CN or D2O solution with an absorbance of 0.2 at 450 nm. This solution was irradiated in fluorescence quartz cuvettes (width 1 cm) using a mounted M450LP1 LED (Thorlabs) whose irradiation, centered at 450 nm, has been focused with aspheric condenser lenses. The intensity of the irradiation has been varied using a T-Cube LED Driver (Thorlabs) and measured with an optical power and energy meter. The emission signal was focused and collected at right angle to the excitation pathway and directed to a Princeton Instruments Acton SP-2300i monochromator. A longpass glass filter was placed in front of the monochromator entrance slit to cut off light at wavelengths shorter than 850 nm. As a detector an EO-817L IR-sensitive liquid nitrogen cooled germanium diode detector (North Coast Scientific Corp.) has been used. The singlet oxygen luminesce at 1270 nm was measured by recording spectra from 1100 to 1400 nm. For the data analysis, the singlet oxygen luminescence peaks at different irradiation intensities were integrated. The resulting areas were plotted against the percentage of the irradiation intensity and the slope of the linear regression calculated. The absorbance of the sample was corrected with an absorbance correction factor. As reference for the measurement Rose Bengal (Φ=76%) (Kochevar, I. E. and Redmond, R. W., 2000) was used and the singlet oxygen quantum yields were calculated using the following formula:
Φsample=Φreference*(Ssample/Sreference)*(Ireference/Isample)
Φ=singlet oxygen quantum yield, S=slope of the linear regression of the plot of the areas of the singlet oxygen luminescence peaks against the irradiation intensity, I=absorbance correction factor, […] of the irradiation source, A=absorbance of the sample at irradiation wavelength.

[5] = Singlet oxygen measurement, indirect evaluation (RNO absorbance); format: physicochemical; settings: indirect
Method: For the measurement in CH3CN: The samples were prepared in an air-saturated CH3CN solution containing the complex with an absorbance of 0.2 at the irradiation wavelength, N,N-dimethyl-4-nitrosoaniline aniline (RNO, 24 μM) and imidazole (12 mM). For the measurement in PBS buffer: The samples were prepared in an air-saturated PBS solution containing the complex with an absorbance of 0.1 at the irradiation wavelength, N,N-dimethyl-4-nitrosoaniline aniline (RNO, 20 μM) and histidine (10 mM). The samples were irradiated on 96 well plates with an Atlas Photonics LUMOS BIO irradiator for different times. The absorbance of the samples was measured during these time intervals with a SpectraMax M2 Microplate Reader (Molecular Devices). The difference in absorbance (A0−A) at 420 nm for the CH3CN solution or at 440 nm a PBS buffer solution was calculated and plotted against the irradiation times. From the plot the slope of the linear regression was calculated as well as the absorbance correction factor determined. The singlet oxygen quantum yields were calculated using the same formulas as used for the direct evaluation.

[6] = system: human cervical carcinoma (HeLa) cells; test: (Photo-)cytotoxicity on 2D cell monolayers, resazurin assay, HeLa; format: cell-based
Text: Before an experiment, the cells were passaged three times.

[7] = system: mouse colon carcinoma (CT-26) cells
Method: (§2) The human glioblastoma astrocytoma (U373) cell line was cultured in MEM medium supplemented with 10% FBS, 1% NEAA (non-essential amino-acids) and 1% penicillin/streptomycin. […] The human retinal epithelial cells (RPE-1, non-cancerous cells immortalized with hTERT) were cultured in DMEM-F12 medium supplemented with 10% FBS and 1% penicillin/streptomycin. All cell lines were obtained from the American Type Culture Collection (ATCC) and cultured at 37° C. and 5% CO2. Before an experiment, the cells were passaged three times.
(§3) The cytotoxicity of the compounds was assessed by measuring cell viability using a fluorometric resazurin assay. The cultivated cells were seeded in triplicates in 96 well plates with a density of 4000 cells per well in 100 μL of media. After 24 h, the medium was removed and the cells were treated with increasing concentrations of the compound diluted in cell media achieving a total volume of 200 μL. The cells were incubated with the compound for 4 h. After this time, the media was removed and replaced with 200 μL of fresh medium. For the phototoxicity studies, the cells were exposed to light with an Atlas Photonics LUMOS BIO irradiator. Each well was constantly illuminated with either a 480 nm or 540 nm irradiation. During this time, the temperature was maintained constantly at 37° C. The cells were grown in the incubator for additional 44 h. For the determination of the dark cytotoxicity, the cells were not irradiated and after the medium exchange directly incubated for 44 h. After this time, the medium was replaced with fresh medium containing resazurin with a final concentration of 0.2 mg/mL. After 4 h incubation, the amount of the fluorescent product resorufin was determined upon excitation at 540 nm and measurement its emission at 590 nm using a SpectraMax M2 Microplate Reader (Molecular Devices).
(§4) The obtained data was analyzed with the GraphPad Prism software.

[8] = system: human glioblastoma astrocytoma (U373) cells
[9] = system: human glioblastoma astrocytoma (U373) cells; test: (Photo-)cytotoxicity on 2D cell monolayers, resazurin assay, U373; settings: for IC50: compounds 1-3 as chloride salts
[10] = system: non-cancerous retinal pigment epithelium (RPE-1) cells; test: (Photo-)cytotoxicity on 2D cell monolayers, resazurin assay, RPE-1;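 note: cells exposed to compound 4 h, medium exchanged, then irradiated or kept dark, 44 h further growth, viability by resorufin fluorescence (ex 540 nm, em 590 nm)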
Method: as §2, §3, §4

[11] = system: mouse colon carcinoma (CT-26) cells; test: (Photo-)cytotoxicity on 2D cell monolayers, resazurin assay, CT-26; settings: for IC50: compounds 1-3 as chloride salts
Method: as §2, §3, §4

[12] = reference for the measurement; cited from earlier work
[13] = CH3CN; cited from earlier work
HeLa MCTS [14] = test: 3D multicellular tumor spheroids (MCTS) growth inhibition assay; format: cell-based, human
Method: (§1) autoclave. The hot emulsion was transferred into wells (50 μL per well) of a 96 cell culture well plate. The plates were exposed for 3 h to UV irradiation to ensure the sterility and allow the agarose solution to cool down. After this time, the agarose was overlayed with a HeLa cell suspension at a density of 3000 cells per well in 150 μL of media. The MCTS were cultivated and maintained at 37° C. in a cell culture incubator at 37° C. with 5% CO2 atmosphere. The culture media was replaced every two days. Within two-three days MCTs were formed from the cell suspension. The formation as well as integrity, diameter and volume of the MCTs was monitored by an Axio Observer Z1 (Carl Zeiss) phase contrast microscope. The volume was calculated using the following formula: V=4/3πr^3. The luminescence images along the z-axis were captured by a one-(λex=458 nm, λem=600-750 nm) or two-photon (λex=800 nm, λem=600-750 nm) excitation in the z-stack mode with a an LSM 880 (Carl Zeiss) laser scanning confocal microscope equipped with Argon and a Coherent Chameleon 2-Photon laser and a GaAsP detector.
MCTS were treated with the corresponding compounds (20 μM 1-7, 20 μM tetraphenylporphyrin H2TPP, 10 μM cisplatin, 30 μM cisplatin, 2% DMSO, v %) by replacing 50% of the media with drug supplemented media in the dark for three days. After this time, the MCTS were exposed to a two-photon irradiation (800 nm, 10 J/cm^2) with a section interval of 5 μm using a LSM 880 (Carl Zeiss) laser scanning confocal microscope equipped with a Coherent Chameleon 2-Photon laser. The cell culture media was replaced every two days. The integrity and diameter of the MCTs was monitored with an Axio Observer Z1 (Carl Zeiss) phase contrast microscope every 24 h.

HeLa MCTS [15] = test: (Photo-)cytotoxicity on 3D multicellular tumor spheroids (ATP, CellTiter-Glo 3D); format: cell-based, human; settings: dark, 12 h incubation, read-out: IC50 dark
Method: as §1
The cytotoxicity of the compounds in 3D multicellular tumor spheroids (MCTS) was assessed by measurement of the ATP concentration. MCTS were treated with increasing concentrations of the compound (2% DMSO, v %) by replacing 50% of the media with drug supplemented media and incubation for 12 h. After this time, the MCTS were divided in three identical groups. The first group was strictly kept in the dark. The second group was exposed to a one-photon irradiation (500 nm, 10 J/cm^2) using a LED and the third group was exposed to a two-photon irradiation (800 nm, 10 J/cm^2) with a section interval of 5 μm using a LSM 880 (Carl Zeiss, Germany) laser scanning confocal microscope equipped with a Coherent Chameleon 2-Photon laser. After the irradiation, all groups were incubated additional 48 h. The ATP concertation was measured using a CellTiter-Glo 3D Cell Viability kit (Promega) by measuring the generated chemiluminescence with an infinite M200 PRO (Tecan) plate reader.

[16] = dark, 4 h incubation, compounds 1-3 as chloride salts, read-out: IC50 dark
[17] = read-out: IC50 dark, U373, dark, 4 h incubation
[18] = read-out: IC50 dark, CT-26, dark, 4 h incubation

## COc1ccc(/C=C/c2ccnc(-c3cc(/C=C/c4ccc(OC)cc4)ccn3)c2)cc1.COc1ccc(/C=C/c2ccnc(-c3cc(/C=C/c4ccc(OC)cc4)ccn3)c2)cc1.COc1ccc(/C=C/c2ccnc(-c3cc(/C=C/c4ccc(OC)cc4)ccn3)c2)cc1.F[P-](F)(F)(F)(F)F.F[P-](F)(F)(F)(F)F.[Ru+2] [Compound 3, [Ru((E,E′)-4,4′-Bis[p-methoxystyryl]-2,2′-bipyridine)3][PF6]2]
[1]
  λem/nm (Emission maximum): 682 nm
[2]
  ϕem (Luminescence Quantum Yield): 0.011
[3]; air saturated CH3CN
  τ/ns air (Lifetime): 76 ns
[3]; degassed CH3CN
  τ/ns degassed (Lifetime): 338 ns
[4]
  Singlet oxygen quantum yield, direct 450 nm CH3CN: 52%
[5]; 450 nm, CH3CN
  Singlet oxygen quantum yield, indirect 450 nm CH3CN: 48%
[5]; 450 nm, PBS
  Singlet oxygen quantum yield, indirect 450 nm PBS: 6%
[5]; 540 nm, CH3CN
  Singlet oxygen quantum yield, indirect 540 nm CH3CN: 49%
[5]; 540 nm, PBS
  Singlet oxygen quantum yield, indirect 540 nm PBS: 5%
[6]; dark vs 480 nm (10 min, 3.1 J/cm^2)
  PI (480 nm): >6.5
[6]; dark vs 540 nm (40 min, 9.5 J/cm^2)
  PI (540 nm): >8.8
[6]; [16]
  IC50: > 100 µM
[6]; read-out: IC50 480 nm (10 min, 3.1 J/cm^2), irradiation 480 nm (10 min, 3.1 J/cm^2), compounds 1-3 as chloride salts
  IC50: 15.3 ± 1.4 µM
[6]; read-out: IC50 540 nm (40 min, 9.5 J/cm^2), irradiation 540 nm (40 min, 9.5 J/cm^2), compounds 1-3 as chloride salts
  IC50: 11.3 ± 2.2 µM
[7]
  IC50: 19.3 ± 2.1 µM
[8]
  IC50: 51.3 ± 3.4 µM
[9]; U373, dark vs 480 nm (10 min, 3.1 J/cm^2)
  PI (480 nm): >2.4
[9]; U373, dark vs 540 nm (40 min, 9.5 J/cm^2)
  PI (540 nm): >1.9
[9]; read-out: IC50 480 nm (10 min, 3.1 J/cm^2), U373, irradiation 480 nm (10 min, 3.1 J/cm^2)
  IC50: 41 ± 3.5 µM
[9]; [17]
  IC50: > 100 µM
[10]; RPE-1, dark vs 480 nm (10 min, 3.1 J/cm^2)
  PI (480 nm): >1.9
[10]; RPE-1, dark vs 540 nm (40 min, 9.5 J/cm^2)
  PI (540 nm): >2.2
[11]; CT-26, dark vs 480 nm (10 min, 3.1 J/cm^2)
  PI (480 nm): >5.2
[11]; CT-26, dark vs 540 nm (40 min, 9.5 J/cm^2)
  PI (540 nm): >4.3
[11]; read-out: IC50 540 nm (40 min, 9.5 J/cm^2), CT-26, irradiation 540 nm (40 min, 9.5 J/cm^2)
  IC50: 23 ± 2.6 µM
[11]; [18]
  IC50: > 100 µM

## O=C([O-])c1c(Cl)c(Cl)c(Cl)c(Cl)c1-c1c2cc(I)c(=O)c(I)c-2oc2c(I)c([O-])c(I)cc12.[Na+].[Na+] [Rose Bengal]
[12]
  Φ (singlet oxygen quantum yield of the reference): 76%

## [Cl-].[Cl-].[Ru+2].c1ccc(-c2ccccn2)nc1.c1ccc(-c2ccccn2)nc1.c1ccc(-c2ccccn2)nc1 [[Ru(bipy)3]Cl2]
[13]
  Φem (luminescence quantum yield of the reference): 5.9%

## N.N.[Cl][Pt][Cl] [cisplatin, reference compound]
[6]; [16]
  IC50: 10.5 ± 0.8 µM
HeLa MCTS [14]; 10 μM
  effect on the tumours growth (MCTS volume) at 10 μM: weak effect
HeLa MCTS [14]; 30 μM
  effect on the tumours growth (MCTS volume) at 30 μM: significantly decreasing the volume
HeLa MCTS [15]
  IC50: 18.6 ± 1.3 µM
[9]; [17]
  IC50: 17.6 ± 1.7 µM
[11]; [18]
  IC50: 6.5 ± 1.1 µM

Reference: US20220409727A1, “Metal Complexes Bearing Bisstyryl-Bipyridine Ligand and Their Use as Photosensitizer Agent in One and Two-Photon Photodynamic Therapy” (Paris Sciences et Lettres, priority 2019, published 2022)
